*: point of attachment. NHNH2 = NN*
What was measured:
Assay type in all cases: cell-based
ARPE19 cells [1] = test: RLuc pDNA delivery, robotic library screening, ARPE19
A549 cells = test: EGFP mRNA delivery, robotic library screening, A549
Method: (§1) Cells were seeded in a 96 well plate the day before the experiment at a concentration of 50,000 cell/mL (100 μL/w) in DMEM+10% FBS+1% Gln-Abt. For robotic library screening, the delivery of EGFP-mRNA (from TriLink, fully substituted with 5-methoxyuridine, capped and polyadenylated; TriLink, CleanCap® EGFP mRNA (5moU), ref. L-7201) in six different cell lines was performed. Amphiphilic molecule stock solutions were prepared in DMSO as described above and diluted in DMEM to afford a range of concentrations. The solutions of EGFP-mRNA/amphiphilic molecule complexes were freshly prepared prior to the transfection experiments. 35 μL of the corresponding amphiphile were added to 10 μL of a solution of EGFP-mRNA at 10 ng/μL in DMEM. The mixture was shaken for 30 min at room temperature before the addition to the cells. The cell medium was aspirated, and cells were washed with PBS twice. Cells were covered with 39 μL of DMEM and 11 μL of the complex's solution were added to the cells and incubated for 4 h (final concentration of peptide=2.5, 5 and 10 μM; final concentration of EGFP-mRNA=25 ng/well). After the incubation, the medium was replaced by 100 μL of fresh DMEM supplemented with 10% FBS. The total EGFP fluorescence was quantified after 72 h in a well plate reader. Amphiphile transfection efficiency was compared and normalized to Lipofectamine® MessengerMax efficiency (value of 1 in Tables 1-5 and 7; double underlined numbers). All experiments were done in triplicate.
(§2) Tables 1-7: RLuc (pDNA) or EGFP (mRNA) expression levels were normalized to Lipofectamine reagents (value=1) and expressed as fold-times signal increase. In the case of siRNA, the siRNA treated cells fluorescence was compared with siMOCK control fluorescence, while Cas9-RNP mediated knockout was measured against the fluorescence of untreated cells. In both siRNA and Cas9-RNP, values are expressed as % fluorescence reduction. Amphiphile concentration was 5 μM in all cases. All experiments were performed in triplicate.
(§3) Tables 14-19 show the mean (triplicates) fluorescence intensity measured after the transfection of EGFP mRNA by different amphiphiles at different concentrations in a variety of cell lines. Background fluorescence values, accounted by untreated control cells, were subtracted for processing.

ARPE19 cells [2] = test: EGFP mRNA delivery, robotic library screening, ARPE19
Method: as §1, §2, §3

[3] = system: A549 cells expressing EGFP; test: Cas9-RNP delivery against EGFP (gene editing, plate reader), A549; conditions: A549 cells
Method: To generate an EGFP expressing HeLa cell line, HeLa cells were transfected with EGFP pDNA (pEGFP-C1, Clontech) and stable transfectants were selected with 400 μg/mL of G-418 (Millipore). Green clones were selected by epifluorescence microscopy and tested for EGFP expression stability through several passages. […] All other EGFP-expressing cell lines were obtained in a similar way from parent non-EGFP-expressing cell lines.
Cells expressing EGFP were seeded in a 96 well plate the day before the experiment at a concentration of 50,000 cell/mL (100 μL/w) in DMEM+10% FBS+1% Gln-Abt. For robotic library screening, the delivery of Cas9-RNP against EGFP (RNP designed to knock-out the gene encoding for the enhanced green fluorescent protein (EGFP)) was performed. For RNP assembly, 9.2 μL of crRNA and 9.2 μL of tracrRNA were mixed in 211.6 μL of Nuclease-Free Duplex Buffer (IDT), incubated for 5 min at 95° C. and slowly cooled at rt (see I. Lostalé-Seijo, et al. Peptide/Cas9 nanostructures for ribonucleoprotein cell membrane transport and gene edition, Chem. Sci., 2017). Cas9 protein was dissolved in DMEM at a final concentration of 4 μM and equal volumes of the RNA complex and Cas9 were mixed and incubated for 5 min at rt. 75 μL of the corresponding amphiphile concentrations were added to 5 μL of RNP at 2 μM. The mixture was shaken for 30 min at room temperature before the addition to the cells. The cell medium was aspirated, and cells were washed twice with PBS. Cells were covered with 30 μL of DMEM and 20 μL of the RNP/amphiphile complexes were added to the cells (final peptide concentrations=2.5, 5 and 10 μM; final Cas9-RNP concentration=50 nM) and incubated for 4 h. After the incubation, the medium was replaced by 100 μL of fresh DMEM supplemented with 10% FBS. The total EGFP fluorescence was quantified after 72 h in a plate reader (FIG. 2, Table 1 (right) and Table 6). All experiments were done in triplicate.
as §2
Tables 26-31 show the mean (triplicates) percentage of gene editing, accounted by GFP fluorescence intensity decrease (% of reduction), measured after the transfection of Cas9-RNP by different amphiphiles at different concentrations in a variety of cell lines. Background values, accounted by untreated control cells, were subtracted for processing.

Ac-RK*LRRK*L-NH2 (Ac-RK(NHNH2)LRRK(NHNH2)L-NH2; not fully specified; printed as Ac-RK*LRRK*L-NH2; also: K*2,K*6: native or modified lysine (ε-amide to a linker)) [Peptide 7.2]
mean luminescent intensity (RLuc pDNA) (ARPE19 cells [1]; Dodecanal, 5 μM): 567 RLU
mean luminescent intensity (RLuc pDNA) (ARPE19 cells [1]; Dodecanal, 10 μM): 424 RLU
mean luminescent intensity (RLuc pDNA) (ARPE19 cells [1]; Dodecanal, 15 μM): 462 RLU
mean luminescent intensity (RLuc pDNA) (ARPE19 cells [1]; Myristoleyl, 5 μM): −485 RLU
mean luminescent intensity (RLuc pDNA) (ARPE19 cells [1]; Myristoleyl, 10 μM): −509 RLU
mean luminescent intensity (RLuc pDNA) (ARPE19 cells [1]; Myristoleyl, 15 μM): −568 RLU
mean fluorescence intensity (EGFP mRNA) (A549 cells; Dodecanal, 2.5 μM): 428
mean fluorescence intensity (EGFP mRNA) (A549 cells; Dodecanal, 5 μM): −205
mean fluorescence intensity (EGFP mRNA) (A549 cells; Dodecanal, 10 μM): −3
mean fluorescence intensity (EGFP mRNA) (A549 cells; Myristoleyl, 2.5 μM): 1101
mean fluorescence intensity (EGFP mRNA) (A549 cells; Myristoleyl, 5 μM): 231
mean fluorescence intensity (EGFP mRNA) (A549 cells; Myristoleyl, 10 μM): 123
mean fluorescence intensity (EGFP mRNA) (ARPE19 cells [2]; Dodecanal, 2.5 μM): 898
mean fluorescence intensity (EGFP mRNA) (ARPE19 cells [2]; Dodecanal, 5 μM): 436
mean fluorescence intensity (EGFP mRNA) (ARPE19 cells [2]; Dodecanal, 10 μM): 1046
mean fluorescence intensity (EGFP mRNA) (ARPE19 cells [2]; Myristoleyl, 2.5 μM): 2289
mean fluorescence intensity (EGFP mRNA) (ARPE19 cells [2]; Myristoleyl, 5 μM): 1119
mean fluorescence intensity (EGFP mRNA) (ARPE19 cells [2]; Myristoleyl, 10 μM): 1131
percentage of gene editing, GFP fluorescence intensity decrease (% of reduction) ([3]; Dodecanal, 10 μM): −3%
percentage of gene editing, GFP fluorescence intensity decrease (% of reduction) ([3]; Dodecanal, 15 μM): −13%
percentage of gene editing, GFP fluorescence intensity decrease (% of reduction) ([3]; Myristoleyl, 5 μM): 3%
percentage of gene editing, GFP fluorescence intensity decrease (% of reduction) ([3]; Myristoleyl, 10 μM): 7%
percentage of gene editing, GFP fluorescence intensity decrease (% of reduction) ([3]; Myristoleyl, 15 μM): 7%

Ac-RK*LRRK*LRK*-NH2 (Ac-RK(NHNH2)LRRK(NHNH2)LRK(NHNH2)-NH2; not fully specified; printed as Ac-RK*LRRK*LRK*-NH2; also: K*2,K*6,K*9: native or modified lysine (ε-amide to a linker)) [Peptide 9.3]
mean luminescent intensity (RLuc pDNA) (ARPE19 cells [1]; Myristoleyl, 5 μM): 1400 RLU
mean luminescent intensity (RLuc pDNA) (ARPE19 cells [1]; Myristoleyl, 10 μM): 6498 RLU
mean luminescent intensity (RLuc pDNA) (ARPE19 cells [1]; Myristoleyl, 15 μM): 1695 RLU
mean luminescent intensity (RLuc pDNA) (ARPE19 cells [1]; Palmitoleyl, 15 μM): 7259 RLU
mean luminescent intensity (RLuc pDNA) (ARPE19 cells [1]; Petroselinyl, 5 μM): 1052 RLU
mean luminescent intensity (RLuc pDNA) (ARPE19 cells [1]; Petroselinyl, 10 μM): 39447 RLU
mean luminescent intensity (RLuc pDNA) (ARPE19 cells [1]; Petroselinyl, 15 μM): 55918 RLU
mean fluorescence intensity (EGFP mRNA) (A549 cells; Myristoleyl, 5 μM): 219
mean fluorescence intensity (EGFP mRNA) (A549 cells; Myristoleyl, 10 μM): −17
mean fluorescence intensity (EGFP mRNA) (A549 cells; Oleyl, 2.5 μM): 89
mean fluorescence intensity (EGFP mRNA) (A549 cells; Oleyl, 5 μM): 399
mean fluorescence intensity (EGFP mRNA) (A549 cells; Oleyl, 10 μM): 139
mean fluorescence intensity (EGFP mRNA) (A549 cells; Petroselinyl, 2.5 μM): 94
mean fluorescence intensity (EGFP mRNA) (A549 cells; Petroselinyl, 5 μM): 789
mean fluorescence intensity (EGFP mRNA) (A549 cells; Petroselinyl, 10 μM): 349
mean fluorescence intensity (EGFP mRNA) (ARPE19 cells [2]; Myristoleyl, 2.5 μM): 5042
mean fluorescence intensity (EGFP mRNA) (ARPE19 cells [2]; Myristoleyl, 5 μM): 1233
mean fluorescence intensity (EGFP mRNA) (ARPE19 cells [2]; Oleyl, 5 μM): 859
mean fluorescence intensity (EGFP mRNA) (ARPE19 cells [2]; Oleyl, 10 μM): 919
mean fluorescence intensity (EGFP mRNA) (ARPE19 cells [2]; Palmitoleyl, 5 μM): 948
mean fluorescence intensity (EGFP mRNA) (ARPE19 cells [2]; Petroselinyl, 5 μM): 858
percentage of gene editing, GFP fluorescence intensity decrease (% of reduction) ([3]; Dodecanal, 10 μM): 0%
percentage of gene editing, GFP fluorescence intensity decrease (% of reduction) ([3]; Dodecanal, 15 μM): 25%
percentage of gene editing, GFP fluorescence intensity decrease (% of reduction) ([3]; Myristoleyl, 5 μM): 13%
percentage of gene editing, GFP fluorescence intensity decrease (% of reduction) ([3]; Myristoleyl, 10 μM): 17%
percentage of gene editing, GFP fluorescence intensity decrease (% of reduction) ([3]; Myristoleyl, 15 μM): 50%
percentage of gene editing, GFP fluorescence intensity decrease (% of reduction) ([3]; Oleyl, 15 μM): 18%
percentage of gene editing, GFP fluorescence intensity decrease (% of reduction) ([3]; Palmitoleyl, 15 μM): 39%
percentage of gene editing, GFP fluorescence intensity decrease (% of reduction) ([3]; Petroselinyl, 10 μM): 13%
percentage of gene editing, GFP fluorescence intensity decrease (% of reduction) ([3]; Petroselinyl, 15 μM): 47%
